According to patent US9029080B2, “Screening assay for insecticides” (priority 2008, dated 2015):

Molecular target: T1, ShaI/KChIP (Drosophila melanogaster, UniProt P17971)
T1 construct: expressed in transfected cells; subclone 18-13-20
T1 sequence (P17971 with tags, fused parts or gaps isoform P17971-1): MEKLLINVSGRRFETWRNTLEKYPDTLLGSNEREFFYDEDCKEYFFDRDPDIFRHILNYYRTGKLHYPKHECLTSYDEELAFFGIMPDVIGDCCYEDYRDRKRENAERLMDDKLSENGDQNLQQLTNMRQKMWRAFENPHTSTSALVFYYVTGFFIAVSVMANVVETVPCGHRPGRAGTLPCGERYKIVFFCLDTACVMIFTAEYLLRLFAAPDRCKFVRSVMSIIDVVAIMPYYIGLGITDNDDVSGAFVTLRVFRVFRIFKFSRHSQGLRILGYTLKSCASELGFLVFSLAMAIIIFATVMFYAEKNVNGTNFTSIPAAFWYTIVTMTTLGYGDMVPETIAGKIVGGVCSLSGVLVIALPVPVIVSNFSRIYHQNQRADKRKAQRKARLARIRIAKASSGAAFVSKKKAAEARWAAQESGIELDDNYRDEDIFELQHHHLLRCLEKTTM
Test: Whole-cell patch clamp on ShaI/KChIP 20 cells
Assay type: cell-based
Details: 100 uM [final], incubation five minutes
Protocol: Chinese hamster ovary (CHO) cells transfected with (a) a Drosophila ShaI gene (b) a Drosophila ShaI pore mutant gene and (c) a Drosophila ShaI+KChIP gene, and were used for all measurements. Cells were plated in 35 mm Petri dishes 2-6 hours before the experiment.
Data were acquired and analyzed using pClamp software (version 9.0.1.16). The whole-cell configuration of the patch-clamp technique was used to voltage clamp cells at room temperature (22-25° C.). Pipettes were pulled from borosilicate glass capillaries (#8250, Garner Glass, Claremont, Calif.) using a DMZ Universal Puller (Zeitz, Munich, Germany) and had resistances of 1-2 MOhm when filled with pipette solution and measured in bath solution. The liquid junction potential between bath and pipette solution was always compensated before the formation of a gigaohm seal.
Membrane current was measured under whole-cell clamp, sampled at 2 kHz and filtered at 1 kHz by an Axoclamp 200B (Axon Instruments). […]
To study ShaI currents on CHO cells, cells were held at −70 mV and a family of 500 ms test voltage pulses was applied starting from −70 to +70 mV, or +100 mV, in 10 mV increments. The amplitude, as measured for the current-voltage relationship, was defined as the maximal current at a given membrane potential. […]
FIG. 13: ShaI/KChIP inhibited by arachidonic acid. […] Pre- and post-compound currents were measured under whole-cell clamp. […]

inhibition of total ShaI/KChIP current: Complete inhibition
Structure (SMILES): CCCCC/C=C\C/C=C\C/C=C\C/C=C\CCCC(=O)O [arachidonic acid]
